Target: T1, 11β-hydroxysteroid dehydrogenase type 1 (11β-HSD1), mouse isoform (Mus musculus, UniProt P50172)
T1 construct: gene Hsd11b1; native 11β-HSD1 in differentiated C2C12 myotubes
Assay: Cell-based cortisone to cortisol conversion in C2C12 myotubes, LCMS/MS

T1 sequence (P50172 whole entry, canonical isoform): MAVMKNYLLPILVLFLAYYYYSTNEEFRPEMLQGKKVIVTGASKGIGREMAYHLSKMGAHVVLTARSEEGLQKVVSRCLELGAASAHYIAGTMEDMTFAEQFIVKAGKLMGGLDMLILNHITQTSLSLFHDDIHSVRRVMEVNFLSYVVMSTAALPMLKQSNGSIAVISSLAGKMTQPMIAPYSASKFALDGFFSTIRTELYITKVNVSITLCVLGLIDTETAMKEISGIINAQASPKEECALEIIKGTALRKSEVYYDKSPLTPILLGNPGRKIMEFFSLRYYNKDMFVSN

CNX-010-49
IC50: 64 nM
